Laboratory results from US6924300B2, “Oxyiminoalkanoic acid derivatives” (Takeda Chemical Industries, Ltd., priority 1998, dated 2005).

Row | melting point | SMILES
1 | 79 to 80 °C | Cc1oc(-c2ccccc2)nc1COc1ccc(CO/N=C(\CCCCCCC(=O)O)c2ccc(F)cc2)cc1 [Example 125, E-8-(4-fluorophenyl)-8-[4-(5-methyl-2-phenyl-4-oxazolylmethoxy)benzyloxyimino]octanoic acid]
2 | 165 to 166 °C (dec.) | Cc1oc(-c2ccccc2)nc1COc1ccc(CCCO/N=C(\C(=O)O)c2ccccc2)cc1 [Example 2, Z-2-[3-[4-(5-methyl-2-phenyl-4-oxazolylmethoxy)phenyl]propoxyimino]-2-phenylacetic acid]
3 | 106 to 107 °C | Cc1oc(-c2ccccc2)nc1CCOc1ccc(CO/N=C(\CCC(=O)O)c2ccccc2)cc1 [Example 50, E-4-[4-[2-(5-methyl-2-phenyl-4-oxazolyl)ethoxy]benzyloxyimino]-4-phenylbutyric acid]
4 | 185 to 186 °C (dec.) | Cc1oc(-c2ccccc2)nc1COc1ccc(CO/N=C(\C(=O)O)c2cccc(C(=O)c3ccccc3)c2)cc1 [Example 40, Z-2-(3-benzoylphenyl)-2-[4-(5-methyl-2-phenyl-4-oxazolylmethoxy)benzyloxyimino]acetic acid]
5 | 95 to 96 °C | Cc1oc(-c2ccccc2)nc1COc1ccc(CO/N=C(\CCCCC(N)=O)c2ccccc2)cc1 [Example 82, E-6-[4-(5-methyl-2-phenyl-4-oxazolylmethoxy)benzyloxyimino]-6-phenylhexanamide]
6 | 194 to 195 °C (dec.) | Cc1oc(-c2ccccc2)nc1COc1ccc(CO/N=C(\C(=O)O)c2ccc(/C=C/c3ccccc3)cc2)cc1 [Example 31, Z-2-[4-(5-methyl-2-phenyl-4-oxazolylmethoxy)benzyloxyimino]-2-[4-(E-2-phenylethenyl)phenyl]acetic acid]
7 | 99 to 100 °C | Cc1sc(-c2ccccc2)nc1COc1ccc(CO/N=C(\CCC(=O)O)c2ccccc2)cc1 [Example 91, E-4-[4-(5-methyl-2-phenyl-4-thiazolylmethoxy)benzyloxyimino]-4-phenylbutyric acid]
8 | 130 to 131 °C (dec.) | Cc1oc(-c2ccccc2)nc1COc1ccc(CO/N=C(/C(=O)O)c2cccnc2)cc1 [Example 37, E-2-[4-(5-methyl-2-phenyl-4-oxazolylmethoxy)benzyloxyimino]-2-(3-pyridyl)acetic acid]
9 | 112 to 114 °C | CCCC/C(=N\OCc1ccc(OCc2nc(-c3ccccc3)oc2C)cc1)C(=O)O [Example 8, E-2-[4-(5-methyl-2-phenyl-4-oxazolylmethoxy)benzyloxyimino]hexanoic acid]
10 | 124 to 125 °C | Cc1oc(-c2ccccc2)nc1COc1ccc(CO/N=C(\CCC(=O)O)c2ccco2)cc1 [Example 72, E-4-(2-furyl)-4-[4-(5-methyl-2-phenyl-4-oxazolylmethoxy)benzyloxyimino]butyric acid]
11 | 91 to 92 °C | O=C(O)CCCC/C(=N\OCc1ccc(OCc2nc(-c3ccccc3)no2)cc1)c1ccccc1 [Example 138, E-6-phenyl-6-[4-(3-phenyl-1,2,4-oxadiazol-5-ylmethoxy)benzyloxyimino]hexanoic acid]
12 | 96 to 97 °C | O=C(O)CC/C(=N\OCc1ccc(OCc2cc(-c3ccccc3)no2)cc1)c1ccccc1 [Example 87, E-4-phenyl-4-[4-(3-phenyl-5-isoxazolylmethoxy)benzyloxyimino]butyric acid]
13 | 104 to 105 °C | O=C(O)CC/C(=N\OCc1ccc(OCc2csc(-c3ccccc3)n2)cc1)c1ccccc1 [Example 108, E-4-phenyl-4-[4-(2-phenyl-4-thiazolylmethoxy)benzyloxyimino]butyric acid]
14 | 54 to 57 °C | Cc1oc(-c2ccccc2)nc1COc1ccc(CO/N=C(/CCCCCCC(=O)O)c2ccc(Cl)cc2)cc1 [Example 124, Z-8-(4-chlorophenyl)-8-[4-(5-methyl-2-phenyl-4-oxazolylmethoxy)benzyloxyimino]octanoic acid]
